Laboratory results published in patent publication US10940139B2, “Compounds that interact with the Ras superfamily for the treatment of cancers, inflammatory diseases, rasopathies, and fibrotic disease” (Shy Therapeutics LLC, priority 2017, dated 2021).

Key:
[1] = tested on: IL6 production in RAW 264.7 macrophage cell line; test: Mouse IL6 quantification assay (LPS-stimulated macrophages, ELISA); assay type: cell-based; settings: RAW264.7, RAW 264.7 murine leukemia virus transformed macrophage cell lines, LPS stimulation, read-out: IL-6 % Inhibition at 30 μM
[2] = tested on: TNFα production in RAW 264.7 macrophage cell line; test: Mouse TNF alpha quantification assay (LPS-stimulated macrophages, ELISA); assay type: cell-based; settings: RAW264.7, RAW 264.7 murine leukemia virus transformed macrophage cell lines, LPS stimulation, read-out: TNF-α % Inhibition at 30 μM

Structure (SMILES)	inhibition at 30 µM [1]	inhibition at 30 µM [2]
COc1ccc(C2CN(C(=O)c3csc4c(O)nc(-c5ccccn5)nc34)CCN2)cc1 (stereo not drawn) [drawing 2198]	51 to 75%	0%
CC(C)Oc1ccc(-c2c(-c3ccccc3)sc3c(O)nc(-c4nccn4C)nc23)cc1F [drawing 2438]	1 to 25%	0%
O=C(Nc1nnc(-c2ccccn2)[nH]1)C1CCCN(c2ncccn2)C1 (stereo not drawn) [drawing 1969]	0%	1 to 25%
CCc1ccccc1OCC(=O)Nc1nnc(-c2ccccn2)[nH]1 [drawing 1982]	26 to 50%	0%
COCCNc1nc(-c2nccn2C)nc2sc(C)c(-c3ccccc3)c12 [drawing 2411]	1 to 25%	26 to 50%
CC(C)NC(=O)Nc1cccc(C(=O)Nc2nnc(-c3ccccn3)[nH]2)c1 [drawing 1926]	0%	1 to 25%
Cn1ccnc1-c1nc(O)c2sc(-c3ccccc3)c(-c3cccc(C(F)(F)F)c3)c2n1 [drawing 2419]	26 to 50%	26 to 50%
O=C(COCc1ccnc(O)c1)Nc1nc(-c2ccccn2)nc2sccc12 [drawing 2250]	26 to 50%	0%
O=c1[nH]c(-c2ccccn2)nc2c([C@@H]3O[C@H](CO)[C@@H](O)[C@H]3O)csc12 [drawing 2354]	1 to 25%	26 to 50%
CCCNC(=O)CN1CCN(c2nc(-c3ccccn3)nc3sc(-c4ccccc4)cc23)CC1 [drawing 2135]	76 to 100%	76 to 100%
Cc1ccc(-c2csc3c(O)nc(-c4ccccn4)nc23)cc1 [drawing 2387]	0%	1 to 25%
Oc1nc(-c2ccccn2)nc2cc(-c3ccc(-c4ccccc4)cc3)sc12 [drawing 2386]	51 to 75%	1 to 25%
COc1cc2c(cc1OC)CCN(C(=O)c1csc3c(O)nc(N)nc13)CC2 [drawing 2099]	1 to 25%	1 to 25%
O=C(c1csc2c(O)nc(-c3ccccn3)nc12)N1CCN(c2ccc(F)cc2F)CC1 [drawing 2185]	76 to 100%	0%
O=C(c1csc2c(O)nc(-c3ccccn3)nc12)N1CCC(N2CCOCC2)CC1 [drawing 2105]	1 to 25%	0%
O=C(Cc1ccc2c(c1)OCCO2)Nc1nnc(-c2ccccn2)[nH]1 [drawing 1997]	0%	1 to 25%
Oc1nc(-c2ccccn2)nc2c3c(sc12)CNC3 [drawing 2315]	0%	1 to 25%
COc1nc(-c2ccccn2)nc2c(C3CCC3)csc12 [drawing 2318]	1 to 25%	1 to 25%
CCOCCNc1nc(-c2nccn2C)nc2sc(-c3ccccc3)c(-c3ccccc3)c12 [drawing 2402]	76 to 100%	76 to 100%
Cc1sc2c(O)nc(-c3ccccn3)nc2c1-c1cccnc1 [drawing 2306]	51 to 75%	0%
Oc1nc(-c2ccccn2)nc2c(-c3ccc(OC(F)F)cc3F)csc12 [drawing 2268]	76 to 100%	26 to 50%
O=C(Nc1nc(-c2ccccn2)cs1)c1cccnc1 [drawing 2017]	1 to 25%	1 to 25%

Structure (SMILES)	inhibition at 30 µM [1]	inhibition at 30 µM [2]
O=C(c1ccn(-c2ccccc2)n1)N1CCCc2c(O)nc(-c3ccccn3)nc21 [drawing 2076]	76 to 100%	26 to 50%
O=C(CCc1c[nH]c2ccccc12)Nc1nnc(-c2ccccn2)[nH]1 [drawing 1941]	51 to 75%	0%
CC(OCc1ccccc1)C(=O)Nc1nnc(-c2ccccn2)[nH]1 (stereo not drawn) [drawing 1971]	1 to 25%	0%
COc1ccnc(-c2nc(O)c3c(C(F)(F)F)csc3n2)c1 [drawing 2226]	51 to 75%	1 to 25%
Cc1c(C(=O)Nc2nnc(-c3ccccn3)[nH]2)oc2c1C(=O)CCC2 [drawing 1946]	1 to 25%	0%
COc1cnc(CNC(=O)c2sc3c(O)nc(-c4ccccn4)nc3c2C)[nH]c1=O [drawing 2351]	1 to 25%	1 to 25%
Oc1nc(-c2ccccn2)nc2c(-c3cc(C(F)(F)F)ccc3F)csc12 [drawing 2303]	76 to 100%	1 to 25%
Oc1nc(-c2ccccn2)nc2c1ncn2-c1ccccc1 [drawing 2123]	1 to 25%	0%
CC(C(=O)Nc1nc(-c2ccccn2)nc2sccc12)c1ccc(C#N)cc1 (stereo not drawn) [drawing 2210]	51 to 75%	0%
CON(C)c1nc(-c2ccccn2)nc2scc(-c3ccccc3)c12 [drawing 2147]	26 to 50%	1 to 25%
CN(CCc1ccncc1)C(=O)c1csc2c(O)nc(-c3ccccn3)nc12 [drawing 2114]	51 to 75%	0%
Cc1nn(C(C)C)cc1-c1csc2c(O)nc(-c3ccccn3)nc12 [drawing 2328]	76 to 100%	26 to 50%
O=C(c1csc2c(O)nc(-c3ccccn3)nc12)N1CCNC(c2ccc(O)cc2)C1 (stereo not drawn) [drawing 2218]	1 to 25%	0%
COc1cnc(-c2ccccn2)nc1O [drawing 2307]	76 to 100%	1 to 25%
Nc1nc(O)c2scc(C(=O)NCCc3cccnc3)c2n1 [drawing 2098]	1 to 25%	1 to 25%
O=C(Nc1nc(-c2ccccn2)cs1)c1ccc2nccnc2c1 [drawing 2011]	51 to 75%	0%
NC(=O)C1CCCN1C(=O)c1cccc(-c2cc3nc(N)nc(O)c3s2)c1 (stereo not drawn) [drawing 2371]	0%	0%
O=C(c1csc2c(O)nc(-c3ccccn3)nc12)N1CCN(c2ccc(F)cc2)CC1 [drawing 2180]	26 to 50%	0%
CC(C)(C)c1sc2c(O)nc(-c3ccccn3)nc2c1Br [drawing 2381]	0%	1 to 25%
Oc1nc(-c2ccccn2)nc2[nH]cnc12 [drawing 2122]	76 to 100%	76 to 100%
O=S1(=O)CCC(Nc2nc(-c3ccccn3)nc3scc(-c4ccccc4)c23)C1 (stereo not drawn) [drawing 2152]	1 to 25%	0%
Oc1nc(-c2ccccn2)nc2c(-c3ccccn3)csc12 [drawing 2288]	76 to 100%	76 to 100%

Structure (SMILES)	inhibition at 30 µM [1]	inhibition at 30 µM [2]
N#Cc1ccc(CC(=O)Nc2ccnc(-c3ccccn3)n2)cc1 [drawing 2125]	1 to 25%	1 to 25%
CN(C)Cc1ccc(F)c(-c2csc3c(O)nc(-c4ccccn4)nc23)c1 [drawing 2293]	76 to 100%	51 to 75%
CC(Oc1ccc(C(=O)Nc2nnc(-c3ccccn3)[nH]2)cn1)c1ccccc1 (stereo not drawn) [drawing 1968]	1 to 25%	0%
Cc1ccccc1N1CCN(C(=O)c2csc3c(O)nc(-c4ccccn4)nc23)CC1 [drawing 2168]	51 to 75%	1 to 25%
COCCNc1nc(-c2nccn2C)nc2sc(-c3ccccc3Cl)c(-c3ccccc3)c12 [drawing 2408]	1 to 25%	1 to 25%
COC(=O)c1cc2nc(-c3ccccn3)nc(O)c2s1 [drawing 2299]	76 to 100%	51 to 75%
OCC1(c2ccc(-c3csc4c(O)nc(-c5ccccn5)nc34)cc2)CC1 [drawing 2278]	76 to 100%	1 to 25%
Cc1sc2c(O)nc(-c3nccn3C)nc2c1-c1ccccc1 [drawing 2421]	76 to 100%	26 to 50%
Nc1nc(O)c2sc(-c3cccc(C(=O)NCc4ncc[nH]4)c3)cc2n1 [drawing 2372]	0%	0%
COC(=O)c1cc(NCc2nc(CC(C)C)no2)ccc1Cl [drawing 2047]	26 to 50%	1 to 25%
CC(OCC(F)(F)F)C(=O)Nc1nnc(-c2ccccn2)[nH]1 (stereo not drawn) [drawing 1948]	0%	1 to 25%
COCC(C)Nc1nc(-c2ccccn2)nc(C(=O)NCCCc2c[nH]cn2)c1Oc1ccccc1 (stereo not drawn) [drawing 2377]	1 to 25%	0%
O=C(OCCc1ccccc1)N1CCCc2c(O)nc(-c3ccccn3)nc21 [drawing 2085]	76 to 100%	26 to 50%
COCCNc1nc(-c2ccccn2)nc2c1c(-c1ccccc1)nn2-c1ccccn1 [drawing 2365]	76 to 100%	51 to 75%
Oc1nc(-c2ccccn2)nc2c(-c3cc(CN4CCCC4)ccc3F)csc12 [drawing 2324]	51 to 75%	0%
COC1CCN(c2nc(-c3nccn3C)nc3sc(-c4ccccc4)c(-c4ccccc4)c23)C1 (stereo not drawn) [drawing 2398]	76 to 100%	76 to 100%
Nc1nc(-c2ccccn2)nc2c(-c3ccccc3Cl)csc12 [drawing 2228]	76 to 100%	1 to 25%
O=C(Nc1nnc(-c2ccccn2)[nH]1)c1ccn(-c2ccccc2)n1 [drawing 1935]	1 to 25%	1 to 25%
COc1ccc(-c2csc3c(O)nc(-c4ccccn4)nc23)c(C)c1 [drawing 2273]	76 to 100%	76 to 100%
O=C(c1csc2c(O)nc(-c3ccccn3)nc12)N1CCOC(Cc2ccccc2)C1 (stereo not drawn) [drawing 2195]	76 to 100%	0%
COC(=O)C(C)CN(Cc1ccccc1)c1nc(C(F)(F)F)ccc1C#N (stereo not drawn) [drawing 2065]	26 to 50%	0%
COc1cccc(CCC(=O)Nc2nnc(-c3ccccn3)[nH]2)c1 [drawing 1928]	0%	1 to 25%
